Counter-ions that a name gives are not always drawn. Non-standard residues stand in square brackets, D forms with d. Residues, ends and D or L forms follow the SMILES beside them. *: point of attachment. Hydrocinnamoyl = O=C(CCc1ccccc1)*; dChg = N[C@@H](C(=O)O)C1CCCCC1; pNA = O=[N+]([O-])c1ccc(N*)cc1; Chg = N[C@H](C(=O)O)C1CCCCC1; Cbz = O=C(OCc1ccccc1)*; PhAc = O=C(Cc1ccccc1)*; Bz = O=C(c1ccccc1)*
Target: T1, bovine trypsin (Bos taurus, UniProt P00760)
T1 sequence (P00760 24-246): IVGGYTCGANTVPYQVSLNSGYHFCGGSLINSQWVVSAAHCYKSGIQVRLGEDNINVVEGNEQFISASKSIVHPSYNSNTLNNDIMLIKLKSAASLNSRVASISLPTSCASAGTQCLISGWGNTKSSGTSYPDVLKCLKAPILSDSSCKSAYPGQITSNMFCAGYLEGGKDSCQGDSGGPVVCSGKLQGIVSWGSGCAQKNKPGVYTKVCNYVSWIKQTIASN
Test: Activity of bovine trypsin at constant substrate and enzyme concentrations (Table IV)
Assay type: biochemical
Conditions: substrate concentration 2 × 10^-4 M; pH 8.4, ionic strength 0.30, 37° C., 405 nm
Description: The results listed in Table IV were obtained under the following experimental conditions: In a measuring vessel 1.7 ml of tris-imidazole buffer having a pH of 8.4 and an ionic strength of 0.30 were mixed at 37° C. with 0.1 ml of an aqueous trypsin solution having a concentration of 2 NF units of trypsin per ml. To the mixture 0.2 ml of a 2×10^-3 molar solution of the substrate to be tested was added. Thereafter, the quantity of p-nitroaniline released from the substrate by the action of the trypsin was determined by measuring the change in the optical density Δ OD per minute at a wave length of 405 nm.

Row | Structure (SMILES) | Quantity in nanomoles of p-nitroaniline enzymatically released from the substrate by 1 NF unit of trypsin in 1 minute
1 | N=C(N)NCCC[C@H](NC(=O)CNC(=O)[C@H](N)C1CCCCC1)C(=O)Nc1ccc([N+](=O)[O-])cc1 [XIII] (H-[dChg]-Gly-Arg-pNA) | 28.8 nmol
2 | N=C(N)NCCC[C@H](NC(=O)CNC(=O)[C@@H](N)C1CCCCC1)C(=O)Nc1ccc([N+](=O)[O-])cc1 [XI] (H-[Chg]-Gly-Arg-pNA) | 20.0 nmol
3 | N=C(N)NCCC[C@H](NC(=O)CNC(=O)[C@@H](NC(=O)OCc1ccccc1)C1CCCCC1)C(=O)Nc1ccc([N+](=O)[O-])cc1 [X] (Cbz-[Chg]-Gly-Arg-pNA) | 46.7 nmol
4 | CC(C)[C@@H](N)C(=O)NCC(=O)N[C@@H](CCCNC(=N)N)C(=O)Nc1ccc([N+](=O)[O-])cc1 [XVI] (H-[dV]-Gly-Arg-pNA) | 33.3 nmol
5 | CC(C)[C@H](NC(=O)[C@H](Cc1ccccc1)NC(=O)c1ccccc1)C(=O)N[C@@H](CCCNC(=N)N)C(=O)Nc1ccc([N+](=O)[O-])cc1 [N^α --Bz--Phe--Val--Arg--pNA . HCl, reference compound] (Bz-Phe-Val-Arg-pNA) | 8,4 nanomoles
6 | CC[C@H](C)[C@H](NC(=O)c1ccccc1)C(=O)NCC(=O)N[C@@H](CCCNC(=N)N)C(=O)Nc1ccc([N+](=O)[O-])cc1 [Substrate III, N^α -Bz-Ile-Gly-Arg-pNA.HCl] (Bz-Ile-Gly-Arg-pNA) | 28.5 nmol
7 | CC(C)C[C@H](NC(=O)c1ccccc1)C(=O)NCC(=O)N[C@@H](CCCNC(=N)N)C(=O)Nc1ccc([N+](=O)[O-])cc1 [Substrate IV, N^α -Bz-Leu-Gly-Arg-pNA.HCl] (Bz-Leu-Gly-Arg-pNA) | 19.2 nmol
8 | N=C(N)NCCC[C@H](NC(=O)CNC(=O)[C@@H](NC(=O)c1ccccc1)C1CCCCC1)C(=O)Nc1ccc([N+](=O)[O-])cc1 [XII] (Bz-[Chg]-Gly-Arg-pNA) | 37.9 nmol
9 | CC(C)[C@H](NC(=O)Cc1ccccc1)C(=O)NCC(=O)N[C@@H](CCCNC(=N)N)C(=O)Nc1ccc([N+](=O)[O-])cc1 [Substrate IX, N^α -2-Phenylacetyl-Val-Gly-Arg-pNA.HCl] (PhAc-Val-Gly-Arg-pNA) | 17.5 nmol
10 | CC(C)[C@H](NC(=O)c1ccccc1)C(=O)N[C@@H](CO)C(=O)N[C@@H](CCCNC(=N)N)C(=O)Nc1ccc([N+](=O)[O-])cc1 [Substrate V, N^α -Bz-Val-Ser-Arg-pNA.HCl] | 15.9 nmol
11 | N=C(N)NCCC[C@H](NC(=O)CNC(=O)[C@H](NC(=O)c1ccccc1)C1CCCCC1)C(=O)Nc1ccc([N+](=O)[O-])cc1 [XIV] (Bz-[dChg]-Gly-Arg-pNA) | 41.9 nmol
12 | CC(C)[C@H](NC(=O)OCc1ccccc1)C(=O)NCC(=O)N[C@@H](CCCNC(=N)N)C(=O)Nc1ccc([N+](=O)[O-])cc1 [XV] (Cbz-Val-Gly-Arg-pNA) | 41.3 nmol
13 | CC[C@H](C)[C@H](NC(=O)c1ccccc1)C(=O)N[C@@H](CO)C(=O)N[C@@H](CCCNC(=N)N)C(=O)Nc1ccc([N+](=O)[O-])cc1 [Substrate VI, N^α -Bz-Ile-Ser-Arg-pNA.HCl] (Bz-Ile-Ser-Arg-pNA) | 19.1 nmol
14 | CC(C)C[C@H](NC(=O)c1ccccc1)C(=O)N[C@@H](CO)C(=O)N[C@@H](CCCNC(=N)N)C(=O)Nc1ccc([N+](=O)[O-])cc1 [Substrate VII, N^α -Bz-Leu-Ser-Arg-pNA.HCl] (Bz-Leu-Ser-Arg-pNA) | 25.7 nmol
15 | N=C(N)NCCCC(NC(=O)c1ccccc1)C(=O)Nc1ccc([N+](=O)[O-])cc1 (racemic) [N^α --Bz--DL--Arg--pNA . HCl, reference compound] | 0,45 nanomoles
16 | CC(C)[C@H](NC(=O)CCc1ccccc1)C(=O)NCC(=O)N[C@@H](CCCNC(=N)N)C(=O)Nc1ccc([N+](=O)[O-])cc1 [Substrate VIII, N^α -3-Phenylpropionyl-Val-Gly-Arg-pNA.HCl] (Hydrocinnamoyl-Val-Gly-Arg-pNA) | 14.2 nmol
17 | CC(C)[C@H](N)C(=O)NCC(=O)N[C@@H](CCCNC(=N)N)C(=O)Nc1ccc([N+](=O)[O-])cc1 [Substrate II, H-Val-Gly-Arg-pNA.2HCl] (H-Val-Gly-Arg-pNA) | 10,8 nanomoles

Tested on: kallikrein
Test: Hydrolysis of tripeptide-p-nitroanilides by kallikrein
Assay type: biochemical
Conditions: not given

Row | Structure (SMILES) | hydrolysis by kallikrein (in words)
18 | CC(C)[C@H](N)C(=O)NCC(=O)N[C@@H](CCCNC(=N)N)C(=O)Nc1ccc([N+](=O)[O-])cc1 [B] (H-Val-Gly-Arg-pNA) | not split by kallikrein at all
19 | N=C(N)NCCC[C@H](NC(=O)[C@H](Cc1ccccc1)NC(=O)[C@@H]1CCCN1)C(=O)Nc1ccc([N+](=O)[O-])cc1 [A] (H-Pro-Phe-Arg-pNA) | hydrolyzed by kallikrein

Target: T2, trypsin (Bos taurus, UniProt P00760)
T2 construct: b360 concerns trypsin in duodenal juice
T2 sequence (P00760 24-246): T1 sequence (P00760 24-246)
Test: Kinetic constants Km and vmax of substrate hydrolysis by trypsin (Lineweaver-Burk)
Assay type: biochemical
Conditions: per NF unit
Description: The enzyme and the substrate are mixed in a buffer solution, and the hydrolysis reaction is followed for 2 to 30 minutes. The concentration of substate [S] is varied, whereas the enzyme concentration is kept constant. If the extinction (OD=optical density) is plotted in a co-ordinate system as a function of time, a curve is obtained the tangent of which at time zero corresponds to the ideal course of the hydrolysis. By means of this tangent the initial rate of the hydrolysis can be determined.
If 1/v is plotted against (1/[S]), a Lineweaver-Burk diagram (cf. "Kurzes Lehrbuch der Biochemie" by P. KARLSON, Georg Thieme-Verlag, Stuttgart, 1967, p. 70) is obtained from which vmax and Km can be determined graphically.
For the determination of the kinetic constants Km and vmax listed in Table I aqueous dilution series of the substrates with concentrations from 0.1 to 2 μmoles/ml were used. […] The value of the quantity of p-nitroaniline formed per minute is a measure for the rate of hydrolysis at a given substrate concentration. […] The kinetic constants Km and vmax were determined from the points of intersection of the curves with the abscissa and the ordinate.

Row | Structure (SMILES) | Vmax
20 | CC(C)[C@@H](N)C(=O)NCC(=O)N[C@@H](CCCNC(=N)N)C(=O)Nc1ccc([N+](=O)[O-])cc1 [XVI] (H-[dV]-Gly-Arg-pNA) | 4.17 × 10^-3 μmole/min. NF

Target: T3, urokinase (Homo sapiens, UniProt P00749)
T3 construct: also urine of healthy test persons
Test: Amidolytic splitting by urokinase and other plasminogen activators
Assay type: biochemical
Conditions: not given

Row | Structure (SMILES) | splitting by urokinase and other plasminogen activators (in words)
21 | CC(C)[C@H](N)C(=O)NCC(=O)N[C@@H](CCCNC(=N)N)C(=O)Nc1ccc([N+](=O)[O-])cc1 [B] (H-Val-Gly-Arg-pNA) | rapidly amidolytically split by urokinase

Source: patent US4278762A, “Method for the quantitative determination of plasminogen activators” (Pentapharm AG, priority 1976, dated 1981)
